Measurements: patent publication US5733893A, “Method of identifying molecules that regulate FGF activity” (Washington University, priority 1995, dated 1998)
Entries after “also recorded” stand apart in the source; their conditions may differ.

Experiments:
[1] = system: FGFR1-expressing BaF3 cells; assay: bFGF mitogenic activity, 3H-thymidine incorporation into FGFR1-expressing BaF3 cells; type: cell-based; conditions: for mitogenic activity with bFGF (in words): FGFR1-expressing BaF3 cells; for Mitogenic activity: relative concentration (wt/vol.) required to incorporate 2 × 10^4 cpm 3H-thymidine into F32 cell DNA: relative to heparin (1.0), ± standard deviation; for mitogenic activity with bFGF (in words) / Mitogenic activity: relative concentration (wt/vol.) required to incorporate 2 × 10^4 cpm 3H-thymidine into F32 cell DNA: bFGF; for fold more active than SOS: FGFR1-expressing BaF3 cell growth with bFGF
Text: This cell line was used to assay synthetic heparin/HS molecules as potential activators or inhibitors of heparin/HS-dependent mitogenesis (3).

bFGF [2] = molecular target: T1, bFGF (Homo sapiens, UniProt P09038); assay: competition with 125I-heparin binding to bFGF; conditions: for binding to bFGF/FGF (in words): competition with 125I-heparin; for IC50: 4 nM FGF, read-out: IC50 (50% competition for 125I-heparin binding to bFGF) (converted)
T1 construct: purchased Scios Nova
T1 sequence (P09038 134-288): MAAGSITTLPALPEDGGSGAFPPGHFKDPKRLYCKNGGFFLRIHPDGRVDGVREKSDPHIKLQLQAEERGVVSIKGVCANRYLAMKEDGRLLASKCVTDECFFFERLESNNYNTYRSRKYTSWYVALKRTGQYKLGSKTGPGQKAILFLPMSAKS
Experimental: FIG. 2A: Binding of oligosaccharides to bFGF as determined by competition with ^125 I-heparin (30).
(§1) The ability of these small oligosaccharides to compete with the binding on ^125 I-heparin to FGF was also assayed. Heparin iodination was carried out by previously published procedure (30). Heparin binding to FGF was determined by incubating 4 nM FGF with ^125 I-heparin and competitor polysaccharide. Complexes were immunoprecipitated with 1:250 dilutions of monoclonal antibody DG2 (DuPont/Merck) (for bFGF) or a polyclonal antibody (for aFGF), and protein A SEPHAROSE (Sigma Chemical Co.). Washing and quantitation was carried out by procedures previously published for soluble receptor-binding assays (3).
(§2) 12. Heparin iodination was as in (30). Heparin binding to FGF was determined by incubating 4 nM FGF with ^125 I-heparin and competitor polysaccharide. Complexes were immunopredpitated with 1:250 dilutions of monoclonal antibody DG2 (for bFGF) or a polydonal antibody (for aFGF), and protein A sepharose (Sigma). Washing and quantitation was as previously described for soluble receptor binding assays (3).

aFGF = assay: competition with 125I-heparin binding to aFGF
Experimental: as §1, §2

bFGF-FRAP binding = assay: binding of 125I-bFGF to soluble receptor FRAP in presence of oligosaccharide; conditions: oligosaccharides 2 μg/ml or increasing concentrations
Experimental: FIG. 2B: Binding of ^125 I-bFGF to FRAP (3), a soluble receptor, in the presence of the indicated oligosaccharide: *, no heparin added; heparin, 50 ng/ml; the remaining oligosaccharides (Di-1 to SOS) were added at a concentration of 2 μg/ml. FGFs were labeled by the Chloramine T method as previously described (31).
(§3) FIG. 2C: Acidic FGF binding to FRAP; FIG. 2D:, basic FGF binding to FRAP. ^125 I-FGFs were incubated with FRAP in the presence of increasing concentrations of heparin or Tri-3; Binding assays were performed as previously described (3).
(§4) The FGFR1-expressing BaF3 cell line was used to assay synthetic heparin/HS molecules as potential activators or inhibitors of heparin/HS-dependent mitogenesis by an assay procedure published previously (3). Such cell lines, which express FGRF1, require heparin/HS and FGF for growth (3). […]
Binding of bFGF to a soluble FGFR-alkaline phosphatase fusion protein (FRAP) or to a cell-surface FGFR is enhanced by heparin/HS or by heparin-derived oligosaccharides (8 to 12 sugar residues) (3,4). The ability of heparin/HS-derived di- and tri-saccharides to enhance FGF-FRAP binding in vitro was measured (3).

bFGF [3] = molecular target: T1, bFGF; assay: bFGF dimerization by crosslinking and electrophoresis; type: biochemical; conditions: for induction of FGF dimers (in words): crosslinking
Experimental: 670 nM bFGF and 3×10^5 cpm ^125 I-bFGF were incubated with the indicated concentration of (μg/ml) Tri-3 or HS-16. Crosslinking and electrophoresis were performed as previously described (3). Dimer (45 kD) band intensities were quantified by scanning densitometry and plotted above each lane. Molecular weight markers (kD) are shown at the right.

[4] = system: FGFR1-expressing BaF3 cells; assay: aFGF mitogenic activity, 3H-thymidine incorporation into FGFR1-expressing BaF3 cells; type: cell-based
Text: Activation of bFGF mitogenic activity as measured by ^3 H-thymidine incorporation into FGFR1-expressing BaF3 cells treated with 150 pM bFGF and increasing concentrations of the indicated oligosaccharides is shown. FIG. 1B.
as §4
However, their potency relative to that of heparin is less than that observed with bFGF (FIG. 1B).

aFGF binding to FRAP = assay: binding of 125I-aFGF to soluble receptor FRAP in presence of oligosaccharide; conditions: increasing concentrations
Experimental: as §3, §4

FGF receptors = assay: dimerization of FGF receptors on BaF3-FGFR1 cells by crosslinking; type: cell-based; conditions: BaF3-FGFR1 cells with FGF-2
Experimental: Binding media (DMEM/0.1% BSA) was supplemented with the indicated concentration of heparin or Tri-3.(*) 200 ng/ml unlabeled FGF-2 added to binding media; Cells were washed once with the same media used for binding, and once with PBS. Crosslinking was as described previously (27).
Crosslinked receptors were electrophoresed on a 5% SDS polyacrylamide gel under reducing condition, and visualized by autoradiography. The lower band corresponds to receptor monomers crosslinked to FGF-2. The upper band corresponds to receptor dimers crosslinked to each other and to FGF-2. Molecular weights (kD) are shown at the right.
Binding media (DMEM/0.1% BSA) was supplemented with the indicated concentration of heparin or Tri-3.(*) 200 ng/ml unlabeled FGF-2 added to binding media; Cells were washed once with the same media used for binding, and once with PBS. Crosslinking was as described previously
Crosslinked receptors were electrophoresed on a 5% SDS polyacrylamide gel under reducing condition, and visualized by autoradiography. The lower band corresponds to receptor monomers crosslinked to FGF-2. The upper band corresponds to receptor dimers crosslinked to each other and to FGF-2.

| SMILES | mitogenic activity with bFGF (in words) [1] | Mitogenic activity: relative concentration (wt/vol.) required to incorporate 2 × 10^4 cpm 3H-thymidine into F32 cell DNA [1] | binding to bFGF/FGF (in words) (bFGF [2]) | fold more active than SOS [1] [fold] | mitogenic activity with bFGF (in words) ([1]; listed as D-3) | binding to aFGF (in words) (aFGF) | enhancement of bFGF-FRAP binding (in words) (bFGF-FRAP binding) | induction of FGF dimers (in words) (bFGF [3]) | IC50 (bFGF [2]) [µM] | proliferation of FGFR1-expressing BaF3 cells in the presence of aFGF (in words) [4] | aFGF binding to FRAP (in words) (aFGF binding to FRAP) | optimal concentration for dimerization activity (bFGF [3]; 670 nM bFGF) [µg/mL] | dimerization of FGF receptors (in words) (FGF receptors) | mitogenic activity with bFGF (in words) ([1]; listed as D-4) |
| --- | --- | --- | --- | --- | --- | --- | --- | --- | --- | --- | --- | --- | --- | --- |
| CO[C@@H]1O[C@H](C(=O)O)[C@@H](O[C@H]2O[C@H](CO)[C@@H](O[C@@H]3O[C@@H](C(=O)O)[C@@H](O)[C@H](O)[C@H]3O)[C@H](O)[C@H]2NS(=O)(=O)O)[C@H](O)[C@H]1O [Tri-2, α-L-IdoA-(1→4)-α-D-GlcNSO3 -(1→4)-β-D-GlcA-1→OMe] | intermediate mitogenic activity; also recorded: lack of activity | 470.6 ± 25.6 | affinity less than that of SOS | – | – | – | – | – | – | – | – | – | – | – |
| CO[C@H]1O[C@H](CO)[C@@H](O[C@@H]2O[C@H](C(=O)O)[C@@H](O)[C@H](O)[C@H]2O)[C@H](O)[C@H]1NC(C)=O [Di-3, β-D-GlcA-(1→4)-α-D-GlcNAc-1→OMe] | intermediate mitogenic activity | 26.0 | bind | 55 | the most active of the disaccharides | bind | enhance bFGF-FRAP binding | induce FGF dimers as well as higher order oligomers | – | – | – | – | – | – |
| O=S(=O)(O)OC[C@H]1O[C@@](COS(=O)(=O)O)(O[C@H]2O[C@H](COS(=O)(=O)O)[C@@H](OS(=O)(=O)O)[C@H](OS(=O)(=O)O)[C@H]2OS(=O)(=O)O)[C@@H](OS(=O)(=O)O)[C@@H]1OS(=O)(=O)O [SOS, sucrose octasulfate, reference compound] | minimal biological activity | 1380.8 ± 30.6 | bind | – | – | bind | – | – | 94.6 | – | – | – | – | – |
| CO[C@@H]1O[C@H](C(=O)O)[C@@H](O[C@H]2O[C@H](CO)[C@@H](O[C@@H]3O[C@@H](C(=O)O)[C@@H](O)[C@H](O)[C@H]3O)[C@H](O)[C@H]2NC(C)=O)[C@H](O)[C@H]1O [Tri-3, α-L-IdoA-(1→4)-α-D-GlcNAc-(1→4)-β-D-GlcA-1→OMe] | active at concentrations comparable to that of heparin; also recorded: higher than expected mitogenic activity; also recorded: the most active compound tested | 3.2 | bind and affinity higher than that of SOS | – | – | bind | enhance bFGF-FRAP binding; also recorded: increases in a dose-dependent manner; also recorded: reproducibly exceeds that with heparin | induce FGF dimers as well as higher order oligomers | 9.87 | stimulate the proliferation | increases in a dose-dependent manner | 35 | dimerization of FGF receptors induced | – |
| CO[C@@H]1O[C@H](C(=O)O)[C@@H](O[C@H]2O[C@H](CO)[C@@H](O[C@@H]3O[C@H](C(=O)O)[C@@H](O)[C@H](O)[C@H]3O)[C@H](O)[C@H]2NC(C)=O)[C@H](O)[C@H]1O [Tri-1, β-D-GlcA-(1→4)-α-D-GlcNAc-(1→4)-β-D-GlcA-1→OMe] | active at concentrations comparable to that of heparin; also recorded: higher than expected mitogenic activity | 1.2 ± 0.2 | bind and affinity higher than that of SOS | – | – | bind | inability of Tri-1 to enhance FGF-FRAP binding | – | 19.9 | stimulate the proliferation | – | – | – | – |
| CO[C@H]1O[C@H](CO)[C@@H](O[C@@H]2O[C@@H](C(=O)O)[C@@H](O)[C@H](O)[C@H]2O)[C@H](O)[C@H]1NS(=O)(=O)O [Di-2, α-L-IdoA-(1→4)-α-D-GlcNSO3 -1→OMe] | intermediate mitogenic activity; also recorded: higher than expected mitogenic activity | 69.5 ± 9.6 | affinity less than that of SOS | – | – | – | – | – | – | – | – | – | – | – |
| CO[C@@H]1O[C@H](C(=O)O)[C@@H](O[C@H]2O[C@H](CO)[C@@H](O)[C@H](O)[C@H]2NC(C)=O)[C@H](O)[C@H]1O [Di-5, D-GlcNAc-(1→4)-β-D-GlcA-1→OMe] | intermediate mitogenic activity | 463.6 | – | – | – | – | – | – | – | – | – | – | – | – |
| CO[C@H]1O[C@H](CO)[C@@H](O[C@@H]2O[C@H](C(=O)O)[C@@H](O)[C@H](O)[C@H]2O)[C@H](O)[C@H]1NS(=O)(=O)O [Di-4, β-D-GlcA-(1→4)-α-D-GlcNSO3 -1→OMe] | intermediate mitogenic activity | 24.7 | bind | 55 | – | bind | enhance bFGF-FRAP binding | – | – | – | – | – | – | the most active of the disaccharides |
| CO[C@H]1O[C@H](CO)[C@@H](O[C@@H]2O[C@@H](C(=O)O)[C@@H](O)[C@H](O)[C@H]2O)[C@H](O)[C@H]1NC(C)=O [Di-1, α-L-IdoA-(1→4)-α-D-GlcNAc-1→OMe] | no activity | – | – | – | – | – | – | – | – | – | – | – | – | – |
